Assay results published in patent publication US4826850A, “Quinoline base compound, process for the preparation thereof and anticancer agent containing the same as pharmacologically efficacious component” (Mect Corporation, priority 1986, dated 1989).
Converted amounts (≈) assume the structure as drawn.

Tests used:
[1] = tested on: KB cells; test: Effect in inhibiting growth of KB-cells (in vitro); type: cell-based; settings: Homo sapiens, 72 h, drug added day 1, cells counted day 4, inhibition rate 50%, read-out: Concentration giving 50% growth inhibition (ED50; Inhibition Rate 50%)
Experimental: (1) Effect in Inhibiting Growth of KB-Cells
The KB-cell, one of the cancer-causing tumor cells, was incubated in an in vitro floating incubation system, and the pharmacological effects of the Compounds (4) and (5) were compared with a control to which the compounds had not been added.
KB Cells (derived from a human epidermoid carcinoma of the mouth).
Eagles minimal essential medium (MEM)-10% calf serum.
37° C. in a carbon dioxide gas incubator (5% CO2).
Day 0: The KB cells were diluted to 2×10^4 /ml medium. 3 ml of the thus diluted KB cell suspension was incubated on a 60 mm plastic dish, at 2 dishes per dose level.
Day 1: Each drug was added into each dish so that the drug content in each dish was adjusted, respectively, to 100, 30, 10, 3 and 1 μg/ml.
Day 4: The cells were stripped from the surface of each dish, and the number of cells was counted using a Kohlter's counter.
A substance or drug having an ED50 value of not more than 4 μg/ml for a synthesized product was appraised as an effective substance. Meanwhile, in evaluating the effect of inhibiting growth of KB-cells, the number of surviving cells was counted by a Kohlter's counter, and the counted number was compared to that of the control (without the addition of the Compound (1)) to find the concentration of the drug for inhibiting the growth by 50%, the thus found concentration being estimated as the ED50 value.

[2] = tested on: P-388; test: Effect in prolonging life of P-388 mice; type: in vivo, mouse; settings: CDF1 mice, P-388 i.p., control 100
Experimental: Test Example 2: Effect in Prolonging the Life of Mouse with Cancer, and Acute Toxicity of Drugs
Using P-388 mice with cancer, the pharmacological efficacy of the aforementioned compounds was evaluated by comparing with a control to which no such compound had been added.
Animal Used: CDF1 Mice (6 mice/group)
Number of Incubated Cells: 10^6 cells/mouse
Days at which Drugs Were Administered: Days 1 and 5, or days 1 to 9
Quantities of Drugs Administered: When a drug was administered at days 1 and 5, the maximum dosed quantity was set at LD50 or 400 mg/kg/day; and when a drug was administered at days 1 to 9, the maximum dosed quantity was set at 1/2×LD50 or 200 mg/kg/day. The experiment was conducted with groups of mice being administered the respective drugs at 3 dose levels incuding the maximum level, 1/2 of the maximum level and 1/4 of the maximum level.
When the T/C %, i.e. the ratio of the survival time (days) of a treated group (administered with a certain drug) to the survival time of a control group (administered with no drug), was 120% or more for a synthesized substance and 130% or more for a natural substance, the drug was appraised as effective (P). The survival time of the group administered with no drug is normally about 10 days (median survival time). In the following Table, an indication of "T/C 0%" means that not less than three mice were dead due to toxicity within 5 days.

[3] = acridine derivatives, literature; cited from earlier work

Row | SMILES | IC50 [1] [µg/mL] | Life Prolonging Rate (T/C) ([2]; Dosage 12.5 mg/kg) [%] | Life Prolonging Rate (T/C) ([2]; Dosage 25 mg/kg) [%] | Life Prolonging Rate (T/C) ([2]; Dosage 50 mg/kg) [%] | Life Prolonging Rate (T/C) ([2]; Dosage 100 mg/kg) [%] | Life Prolonging Rate (T/C) ([2]; Dosage 200 mg/kg) [%] | Life Prolonging Rate (T/C) ([2]; Dosage 400 mg/kg, T/C 0% means not less than three mice dead due to toxicity within 5 days) [%] | Anticancer effect [3]
1 | COc1cc(NS(C)(=O)=O)ccc1Nc1c2ccccc2nc2c1sc1ccccc12 [Compound 5, N-(4-((benzothieno(3,2-b)quinoline-11-yl)amino)-3-methoxyphenyl)methanesulfoneamide] | 0.3 (≈ 0.667 µM) | 138 | 170 | 170 |  |  |  | 
2 | COc1cc(NS(C)(=O)=O)ccc1Nc1c2c(nc3ccccc13)-c1ccccc1C2 [Compound 6] | < 0.3 | 166 |  | 217 | 240 | 60 | 0 | 
3 | COc1cc(NS(C)(=O)=O)ccc1Nc1c2ccccc2nc2c1oc1ccccc12 [Compound 4, N-(4-((benzofuro(3,2-b)quinoline-11yl)amino)-3-methoxyphenyl)methane sulfoneamide] | 0.3 (≈ 0.692 µM) | 180 | 195 | 200 |  |  |  | 
4 | COc1cc(NS(C)(=O)=O)ccc1Nc1c2ccccc2nc2ccccc12 [amsacrine, N-(4-(9-acridinylamino)-3-methoxyphenyl)-methanesulfoneamide] |  |  |  |  |  |  |  | most effective derivative
5 | COc1cc(NS(C)(=O)=O)ccc1Nc1c2c(nc3ccccc13)CCCC2 [tetrahydroamsacrine] |  |  |  |  |  |  |  | reduced anticancer effect
